The values that follow come from PubChem BioAssay (NCI).

Test systems include CCRF-CEM leukemia; SK-MEL-5 melanoma; K-562 leukemia; CAKI-1 renal; SK-MEL-28 melanoma; MOLT-4 leukemia; KM12 colon; A549 NSCLC; SNB-19 CNS; HOP-62 NSCLC.
Experiment in all cases: NCI anticancer screen, dose series, 48 h

The structures appear in SMILES notation.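 In this assay, cells in 96-well plates receive the compound at five concentrations for 48 hours. Endpoints are linearly interpolated between the surrounding concentrations. Here, GI50 denotes the concentration required for 50% inhibition of growth. TGI: concentration producing complete growth inhibition.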 A value given as a limit tells only on which side of the number the result lay.

In the case of `CC(=O)Nc1[nH]c(=O)[nH]c(=O)c1N(C(C)=O)C(C)=O`, the TGI in the test with CCRF-CEM leukemia, in the test with SK-MEL-5 melanoma, in the test on K-562 leukemia, in the test with CAKI-1 renal, in the test on SK-MEL-28 melanoma and in the test on MOLT-4 leukemia was over 100 µM throughout. Further, the TGI in the test with KM12 colon, in the test on A549 NSCLC and with SNB-19 CNS was over 100 µM throughout.

Consider `O=C(Nc1ccc(-c2nc3ccc(NC(=O)c4ccc(Cl)cc4)cc3[nH]2)cc1)c1ccc(Cl)cc1`, for which the GI50 with CCRF-CEM leukemia is 0.433 µM; in the test on SK-MEL-5 melanoma, 3.53 µM; with K-562 leukemia it was 0.487 µM; in the test on HOP-62 NSCLC it was 2.59 µM; in the test on CAKI-1 renal, 7.12 µM; in the test with SK-MEL-28 melanoma, 2.78 µM. Moreover, the GI50 in the test on MOLT-4 leukemia was 0.901 µM; in the test on KM12 colon it was 2.16 µM; with A549 NSCLC it was 2.05 µM; in the test on SNB-19 CNS, 13.8 µM. Moreover, the TGI stood at 4.41 µM in the test with CCRF-CEM leukemia; 14.4 µM with SK-MEL-5 melanoma; 4.57 µM with K-562 leukemia; 9.07 µM in the test on HOP-62 NSCLC; 23.7 µM in the test with CAKI-1 renal; 14.9 µM in the test with SK-MEL-28 melanoma. Further, the TGI was 8.31 µM in the test with MOLT-4 leukemia, 5.38 µM in the test with KM12 colon, 5.08 µM with A549 NSCLC and 28.4 µM with SNB-19 CNS.

As to `CCNC1=CC(=O)c2ncccc2C1=O`, the GI50 is 6.14 µM with CCRF-CEM leukemia; 0.298 µM in the test on SK-MEL-5 melanoma; 2.84 µM in the test with K-562 leukemia; 0.583 µM in the test on HOP-62 NSCLC; 7.5 µM with CAKI-1 renal; 1.71 µM with SK-MEL-28 melanoma. In addition, the GI50 in the test on MOLT-4 leukemia was 2.94 µM; in the test on KM12 colon, 3.25 µM; with A549 NSCLC, 1.2 µM; in the test on SNB-19 CNS, 1.59 µM. The TGI was found to be 42.4 µM in the test with CCRF-CEM leukemia; 1.11 µM in the test on SK-MEL-5 melanoma; 12.5 µM with K-562 leukemia; 2.04 µM in the test on HOP-62 NSCLC; 21.1 µM in the test with CAKI-1 renal; 3.52 µM in the test on SK-MEL-28 melanoma. Besides, the TGI stood at 14.3 µM in the test with MOLT-4 leukemia, 15.1 µM in the test with KM12 colon, 3.38 µM in the test with A549 NSCLC and 6.7 µM with SNB-19 CNS.

Turning to `CC(C)=CCC[C@](C)(O)[C@H]1CC[C@]2(C)[C@@H]1CC[C@@H]1[C@@]3(C)CC[C@H](OC(=O)CCC(=O)O)C(C)(C)[C@@H]3CC[C@]12C`, the GI50 in the test on CCRF-CEM leukemia was 12.1 µM; in the test with SK-MEL-5 melanoma it was 17.8 µM; in the test on K-562 leukemia, 23.8 µM; in the test on HOP-62 NSCLC it was 37.6 µM; in the test on CAKI-1 renal, 24.7 µM; with SK-MEL-28 melanoma it was 16.9 µM. Besides, the GI50 in the test on MOLT-4 leukemia is 21 µM; with KM12 colon it was 18.5 µM; in the test on A549 NSCLC, 32.3 µM; in the test with SNB-19 CNS it was 25.1 µM. For the same compound, the TGI in the test on CCRF-CEM leukemia is 58 µM; with SK-MEL-5 melanoma it was 43.2 µM; in the test with K-562 leukemia it was over 100 µM; with HOP-62 NSCLC, over 100 µM; with CAKI-1 renal, over 100 µM; in the test on SK-MEL-28 melanoma, 34.8 µM. The TGI in the test with MOLT-4 leukemia is 94 µM; in the test on KM12 colon, 41.2 µM; with A549 NSCLC it was over 100 µM; with SNB-19 CNS, over 100 µM.

`Clc1ccc(CCN2CCOCC2)c(Cl)c1`: the TGI in the test with CCRF-CEM leukemia, with SK-MEL-5 melanoma, in the test on K-562 leukemia, in the test on HOP-62 NSCLC, with CAKI-1 renal and in the test on SK-MEL-28 melanoma was over 100 µM in each case. Further, the TGI with MOLT-4 leukemia, in the test with KM12 colon, in the test on A549 NSCLC and in the test with SNB-19 CNS was over 100 µM in each case.

`CCCC/C(C)=N/NC(N)=S`: the TGI in the test on CCRF-CEM leukemia, in the test with SK-MEL-5 melanoma, with K-562 leukemia, with HOP-62 NSCLC, in the test with CAKI-1 renal and in the test on SK-MEL-28 melanoma was over 100 µM in each case. The TGI in the test with MOLT-4 leukemia, in the test on KM12 colon, in the test on A549 NSCLC and with SNB-19 CNS was over 100 µM each time.

Regarding `CCCCCCCCSC(SCCCCCCCC)=C1C(=O)N(c2ccccc2)N=C1C`, the TGI in the test on CCRF-CEM leukemia was 44 µM; in the test on SK-MEL-5 melanoma, over 100 µM; in the test with K-562 leukemia it was 84.6 µM; in the test on HOP-62 NSCLC, over 100 µM; in the test on CAKI-1 renal, 90.7 µM; in the test on SK-MEL-28 melanoma it was over 100 µM. Moreover, the TGI in the test with MOLT-4 leukemia was 82.2 µM; with KM12 colon, over 100 µM; with A549 NSCLC, over 100 µM; in the test on SNB-19 CNS, over 100 µM.

`Cc1[nH]nc(C(=O)N/N=C/c2cccs2)c1N=NN(C)C`: the TGI in the test on CCRF-CEM leukemia was over 100 µM; with SK-MEL-5 melanoma, 50.2 µM; with K-562 leukemia it was over 100 µM; in the test on HOP-62 NSCLC, 50.1 µM; in the test on CAKI-1 renal, 25.9 µM; in the test with MOLT-4 leukemia, 90.7 µM. Also, the TGI in the test on KM12 colon is over 100 µM; in the test with A549 NSCLC, 52.7 µM; in the test on SNB-19 CNS it was 27.6 µM.

On to `COc1cc([N+](=O)[O-])c2ncccc2c1O`, for which the GI50 in the test on CCRF-CEM leukemia is 95.2 µM; in the test on SK-MEL-5 melanoma, 1.47 µM; in the test on K-562 leukemia, 38.2 µM; in the test on HOP-62 NSCLC, 2.05 µM; in the test with CAKI-1 renal, 4.84 µM; in the test on SK-MEL-28 melanoma, 2.77 µM. Further, the GI50 is 49.1 µM with MOLT-4 leukemia, 2.18 µM with KM12 colon, 0.32 µM in the test on A549 NSCLC and 3.19 µM in the test with SNB-19 CNS. For the same compound, the TGI was over 100 µM with CCRF-CEM leukemia; 2.9 µM in the test with SK-MEL-5 melanoma; over 100 µM with K-562 leukemia; 4.96 µM in the test on HOP-62 NSCLC; 30.9 µM in the test on CAKI-1 renal; 7.78 µM in the test on SK-MEL-28 melanoma. Moreover, the TGI is over 100 µM in the test on MOLT-4 leukemia, 7.02 µM in the test with KM12 colon, 1.74 µM with A549 NSCLC and over 100 µM in the test with SNB-19 CNS.
